Two compounds from patent publication US20170121683A1, “ARYL HYDROCARBON RECEPTOR DISRUPTION AND ENHANCEMENT” (priority 2015, published 2017) can be followed below.

The test system of assay [1] is hESC-derived non-adherent hematopoietic progenitor cells. As to the kind of experiment: Hematopoietic colony-forming unit (CFU) assay (Example 2). It is filed as cell-based, human. The following applies: cells harvested at Day 6+5, 14 days in Methocult, n=3. An excerpt: FIG. 9A. Non-adherent hematopoietic progenitor cells derived from hESCs differentiated in the presence of SR-1, TCDD, or DMSO controls were harvested at Day 6+5 and seeded at 50,000 cells/dish in a standard methylcellulose colony-forming unit assay (CFU). Colonies were counted for each treatment group following 2 weeks of culture and scored for the following morphological subsets: BFU-E: burst-forming unit-erythroid; CFU-E: colony-forming unit-erythroid; CFU-GM: colony-forming unit-granulocyte, macrophage, CFU-M: colony-forming unit-macrophage; CFU-GEMM: colony-forming unit-granulocyte, erythroid, macrophage, megakaryocyte. n=3, error bars represent SEM of the total number of colonies/50,000 cells seeded, *p<0.05 as assessed with one-way ANOVA+Tukey-Kramer multiple comparisons post-hoc test. FIG. 9B. Non-adherent hematopoietic progenitor cells derived from hESCs differentiated in the presence of SR-1, TCDD, or DMSO controls were harvested at Day 6+3, Day 6+6, and Day 6+9 time points and probed for gene expression by quantitative real-time PCR (qRT-PCR). […]
Day 6+5 spin-EB non-adherent fractions were resuspended in IMDM. […] Plates were incubated for 14 days and subsequently counted and phenotypically scored using standard criteria (Kaufman et al. Proc. Natl. Acad. Sci. U.S.A. 2001; 98(19):10716-21).

Assay [2] concerns hESC-derived hematopoietic cells. The experiment in a line: qRT-PCR of lymphoid-specific gene expression. Further details: expression of TBX21/TBET, fold vs DMSO-treated control / expression of EOMES, fold vs DMSO-treated control: concentration or dose not given beside the values. It is filed as cell-based, human. The settings on record: Day 11+28. Here is the method: FIG. 13A. Schema of hESC differentiation into lymphoid cells as spin-embryoid bodies (spin-EBs). hESCs are made into spin-EBs at Day 0 and cultured in Stage 1 conditions with defined cytokines to promote mesoderm development for 11 days. At Day 11, spin-EBs are transferred onto OP9-DL1 in the presence of NK cell differentiation media (NKDM) to promote lymphoid differentiation. Cells are treated beginning at Day 11+0 with either 1 μM SR-1, 10 nM TCDD, or DMSO vehicle control with media exchanges and/or harvesting performed every week for up to 4 weeks. FIG. 13B. At Day 11, differentiated spin-EBs (photo) are phenotyped for CD34^+CD45^+ expression and transferred to OP9-DL1 stroma in NKDM. Non-adherent hematopoietic cells cultured either in the presence of DMSO, SR-1, or TCDD were assessed for developing NK cell immunophenotype based on CD56^+CD45^+ expression at Days 11+21, and 11+28; representative flow cytometry plots from one differentiation are shown. FIG. 13C. Quantification of fold-change in total percentage of CD56^+CD45^+ cells at both Day 11+21 and Day 11+28 when treated with DMSO, SR-1, or TCDD. SR-1 and TCDD treatments for each differentiation are normalized to DMSO controls. n=3 independent differentiation experiments, error bars represent SEM, *p<0.05 as assessed with two-way ANOVA+Tukey-Kramer multiple comparisons post-hoc test. FIG. 13D. Non-adherent hematopoietic progenitor cells derived from hESCs differentiated in the presence of SR-1, TCDD, or DMSO controls were harvested at Day 11+28 and probed for gene expression by quantitative real-time PCR (qRT-PCR). For each gene, Ct values were normalized to GAPDH at each time point and data is presented as relative fold-change to DMSO treated controls. n=3, error bars represent SEM, *p<0.05, #p<0.01 using student's t-test. FIG. 13E. Non-adherent hematopoietic progenitor cells derived from hESCs differentiated in the presence of SR-1, TCDD, or DMSO controls were harvested at Day 11+28 and assessed for CD107a expression following 4 hours of co-culture with K562 target cells at 2:1 effector:target ratio. SSC: side scatter. Representative flow cytometry plots are shown from one experiment. FIG. 13F. Quantification of percentage of CD107a^+ cells when treated with DMSO, SR-1, or TCDD at Day 11+28, n=2-3 replicates.
Spin-EBs were generated as described above (see also Knorr et al. Stem Cells Dev. 2013; 22(13):1861-9; Ni et al. Embryonic Stem Cell Immunobiol. Methods Protoc. Methods Mol. Biol. 2013; 1029:33-41; Hermanson et al. Stem Cells. 2016; 34(1):93-101). Following 11 days of mesoderm conditioning (Day 11), spin-EBs were collected and analyzed by flow cytometry to assess hematopoietic progenitor cell potential (see flow cytometry methods for antibodies used) (FIG. 4A). Spin-EBs yielding >30% CD34^+CD45^+ cells were transferred onto 24-well plates coated with irradiated OP9-DL1 cells (as described in Martin et al. Blood. 2008; 112(7):2730-7; La Motte-Mohs et al. Blood. 2005; 105(4):1431-9) (now defined as Day 11+0). EBs and OP9-DL1 were co-cultured in NK differentiation media (NKDM) supplemented initially with SCF, IL-15, IL-7, Flt3-L (all R&D Systems), and IL-3 (PeproTech) for one week; DMSO, SR-1, or TCDD were also added at Day 11+0. Every week, a one-half media change with NKDM supplemented with SCF, IL-15, IL-7, Flt3-L, and drugs was performed. hESCs were differentiated for four additional weeks (Day 11+28) and non-adherent cells were harvested for analysis. […]

On to `CC(C)n1cnc2c(NCCc3ccc(O)cc3)nc(-c3csc4ccccc34)nc21` [SR-1, StemReginin-1], for which the “total number of colonies / 50,000 cells seeded” value in assay [1] turned out to be 245.67±64.4 colonies. In assay [2], the “expression of EOMES, fold vs DMSO-treated control” value was 5.12±0.52 fold; the “expression of ID2, fold vs DMSO-treated control” value turned out to be 2.49±0.003 fold; the “expression of TBX21/TBET, fold vs DMSO-treated control” value stood at 3.44±0.55 fold.
On to `Clc1cc2c(cc1Cl)Oc1cc(Cl)c(Cl)cc1O2` [TCDD, 2,3,7,8-tetrachlorodibenzo-p-dioxin], for which the “total number of colonies / 50,000 cells seeded” value in assay [1] is 28.3±2.67 colonies. In assay [2], the “expression of EOMES, fold vs DMSO-treated control” value turned out to be 1.84±0.11 fold and the “expression of TBX21/TBET, fold vs DMSO-treated control” value amounted to 1.56±0.07 fold.
